Measured values taken from the supplement of paper PMC4862054.

Tests used:
Details in all cases: incubation time: 72 h
BT-474 [1] = test: normalised response (% of control), CellTox Green; higher = less cell death (100 = DMSO, 0 = benzethonium chloride kill control)
Method in brief: (§1)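 Breast cancer cell lines, seeded at 20 µl suspension per well, were incubated for 72 h in 384-well plates containing compound at 5 concentrations. These concentrations rose in 10-fold steps over a 10,000-fold range set for each compound. CellTox Green fluorescence (485/520 nm) was read, then CellTiter-Glo luminescence after 10 min at room temperature, and each plate was normalised to 0.1 % DMSO (100) and a positive kill control (0). Values are normalised signals, each at one concentration.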

BT-549 [2] = test: as above
Method in brief: as §1

CAL-120 [3] = test: as above
Method in brief: as §1

CAL-148 [4] = test: as above
Method in brief: as §1

CAL-51 [5] = test: as above
Method in brief: as §1

CAL-85-1 [6] = test: as above
Method in brief: as §1

DU-4475 [7] = test: as above
Method in brief: as §1

HCC1143 [8] = test: as above
Method in brief: as §1

HCC1599 [9] = test: as above
Method in brief: as §1

HCC1937 [10] = test: as above
Method in brief: as §1

HDQ-P1 [11] = test: as above
Method in brief: as §1

Hs578T [12] = test: as above
Method in brief: as §1

MCF-10A [13] = test: as above
Method in brief: as §1

MDA-MB-231 [14] = test: as above
Method in brief: as §1

MDA-MB-436 [15] = test: as above
Method in brief: as §1

MDA-MB-453 [16] = test: as above
Method in brief: as §1

MDA-MB-468 [17] = test: as above
Method in brief: as §1

MFM-223 [18] = test: as above
Method in brief: as §1

BT-474 [19] = test: normalised response (% of control), CellTiter-Glo; higher = more viable cells (100 = DMSO, 0 = benzethonium chloride kill control)
Procedure: (§2)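 DSRT, 72 h incubation, CellTox Green / CellTiter-Glo readout. Signal is normalised to DMSO and benzethonium chloride controls. Value is the normalised response at the highest dose.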

BT-549 [20] = test: as above
Procedure: as §2

CAL-120 [21] = test: as above
Procedure: as §2

CAL-148 [22] = test: as above
Procedure: as §2

CAL-51 [23] = test: as above
Procedure: as §2

CAL-85-1 [24] = test: as above
Procedure: as §2

DU-4475 [25] = test: as above
Procedure: as §2

HCC1143 [26] = test: as above
Procedure: as §2

HCC1599 [27] = test: as above
Procedure: as §2

HCC1937 [28] = test: as above
Procedure: as §2

HDQ-P1 [29] = test: as above
Procedure: as §2

Hs578T [30] = test: as above
Procedure: as §2

MCF-10A [31] = test: as above
Procedure: as §2

MDA-MB-231 [32] = test: as above
Procedure: as §2

MDA-MB-436 [33] = test: as above
Procedure: as §2

MDA-MB-453 [34] = test: as above
Procedure: as §2

MDA-MB-468 [35] = test: as above
Procedure: as §2

MFM-223 [36] = test: as above
Procedure: as §2

SK-BR-3 [37] = test: as above
Procedure: as §2

BT-474 [38] = test: normalised response (% of control), CellTiter-Glo; higher = more viable cells (100 = DMSO, 0 = benzethonium chloride kill control); remark: listed apart in the source
Method in brief: as §1

BT-549 [39] = test: as above; remark: listed apart in the source
Method in brief: as §1

CAL-120 [40] = test: as above; remark: listed apart in the source
Method in brief: as §1

CAL-148 [41] = test: as above; remark: listed apart in the source
Method in brief: as §1

CAL-51 [42] = test: as above; remark: listed apart in the source
Method in brief: as §1

CAL-85-1 [43] = test: as above; remark: listed apart in the source
Method in brief: as §1

DU-4475 [44] = test: as above; remark: listed apart in the source
Method in brief: as §1

HCC1143 [45] = test: as above; remark: listed apart in the source
Method in brief: as §1

HCC1599 [46] = test: as above; remark: listed apart in the source
Method in brief: as §1

HCC1937 [47] = test: as above; remark: listed apart in the source
Method in brief: as §1

HDQ-P1 [48] = test: as above; remark: listed apart in the source
Method in brief: as §1

Hs578T [49] = test: as above; remark: listed apart in the source
Method in brief: as §1

MCF-10A [50] = test: as above; remark: listed apart in the source
Method in brief: as §1

MDA-MB-231 [51] = test: as above; remark: listed apart in the source
Method in brief: as §1

MDA-MB-436 [52] = test: as above; remark: listed apart in the source
Method in brief: as §1

MDA-MB-453 [53] = test: as above; remark: listed apart in the source
Method in brief: as §1

MDA-MB-468 [54] = test: as above; remark: listed apart in the source
Method in brief: as §1

MFM-223 [55] = test: as above; remark: listed apart in the source
Method in brief: as §1

SK-BR-3 [56] = test: as above; remark: listed apart in the source
Method in brief: as §1

Structure (SMILES) | normalised response (BT-474 [1]) [%] | normalised response (BT-549 [2]) [%] | normalised response (CAL-120 [3]) [%] | normalised response (CAL-148 [4]) [%] | normalised response (CAL-51 [5]) [%] | normalised response (CAL-85-1 [6]) [%] | normalised response (DU-4475 [7]) [%] | normalised response (HCC1143 [8]) [%] | normalised response (HCC1599 [9]) [%] | normalised response (HCC1937 [10]) [%] | normalised response (HDQ-P1 [11]) [%] | normalised response (Hs578T [12]) [%] | normalised response (MCF-10A [13]) [%] | normalised response (MDA-MB-231 [14]) [%] | normalised response (MDA-MB-436 [15]) [%] | normalised response (MDA-MB-453 [16]) [%] | normalised response (MDA-MB-468 [17]) [%] | normalised response (MFM-223 [18]) [%] | normalised response (BT-474 [19]) [%] | normalised response (BT-549 [20]) [%] | further results
Nc1nccc(-c2c(-c3ccc(F)cc3)ncn2C2CCCCC2)n1 (10000 nM) | 103 | 100 | 105 | 99.9 | 105 | 71.6 | 98.6 | 110 | 98.1 | 69.8 | 95.7 | 135 | 11.8 | 109 | 92.7 | 104 | 114 | 96 | 83.6 | 92.2 | normalised response (CAL-120 [21]): 107%; normalised response (CAL-148 [22]): 110%; normalised response (CAL-51 [23]): 89.2%; normalised response (CAL-85-1 [24]): 75.7%; normalised response (DU-4475 [25]): 91.7%; normalised response (HCC1143 [26]): 99.7%; normalised response (HCC1599 [27]): 101%; normalised response (HCC1937 [28]): 80.2%; normalised response (HDQ-P1 [29]): 70.5%; normalised response (Hs578T [30]): 99.9%; normalised response (MCF-10A [31]): 48.5%; normalised response (MDA-MB-231 [32]): 84.4%; normalised response (MDA-MB-436 [33]): 96%; normalised response (MDA-MB-453 [34]): 84.9%; normalised response (MDA-MB-468 [35]): 70.2%; normalised response (MFM-223 [36]): 88%; normalised response (SK-BR-3 [37]): 71.8%
Cc1cc(C(C)Nc2ccccc2)c2nc(N3CCOCC3)cc(=O)n2c1 (centres undefined) [TGX-221] (10000 nM) | 92.8 | 84.2 | 96.3 | 97.4 | 93.5 | 106 | 94.7 | 76.9 | 91 | 79.8 | – | -33.5 | – | 69 | 78.3 | 90.7 | 152 | 94.5 | 70.9 | 78.7 | normalised response (CAL-120 [21]): 88.5%; normalised response (CAL-148 [22]): 105%; normalised response (CAL-51 [23]): 67.6%; normalised response (CAL-85-1 [24]): 98.2%; normalised response (DU-4475 [25]): 95.6%; normalised response (HCC1143 [26]): 86.8%; normalised response (HCC1599 [27]): 99.2%; normalised response (HCC1937 [28]): 78.6%; normalised response (HDQ-P1 [29]): 88.6%; normalised response (Hs578T [30]): 79%; normalised response (MCF-10A [31]): 82.5%; normalised response (MDA-MB-231 [32]): 72.5%; normalised response (MDA-MB-436 [33]): 70.9%; normalised response (MDA-MB-453 [34]): 76.1%; normalised response (MDA-MB-468 [35]): 58.1%; normalised response (MFM-223 [36]): 88.7%; normalised response (SK-BR-3 [37]): 78%
COc1cc(Nc2ncc(F)c(Nc3ccc4c(n3)NC(=O)C(C)(C)O4)n2)cc(OC)c1OC [Tamatinib] (100 nM) | 101 | 94.5 | 103 | 73.6 | 115 | 113 | 104 | 90.7 | 99.2 | 93.6 | 107 | 112 | 107 | 105 | 104 | 109 | 83.2 | 91.3 | – | – | normalised response (BT-474 [38]): 101%; normalised response (BT-549 [39]): 98.9%; normalised response (CAL-120 [40]): 96.2%; normalised response (CAL-148 [41]): 112%; normalised response (CAL-51 [42]): 104%; normalised response (CAL-85-1 [43]): 96.7%; normalised response (DU-4475 [44]): 105%; normalised response (HCC1143 [45]): 105%; normalised response (HCC1599 [46]): 123%; normalised response (HCC1937 [47]): 103%; normalised response (HDQ-P1 [48]): 97.9%; normalised response (Hs578T [49]): 102%; normalised response (MCF-10A [50]): 104%; normalised response (MDA-MB-231 [51]): 108%; normalised response (MDA-MB-436 [52]): 99%; normalised response (MDA-MB-453 [53]): 108%; normalised response (MDA-MB-468 [54]): 93.8%; normalised response (MFM-223 [55]): 110%; normalised response (SK-BR-3 [56]): 111%
